Assay results: patent US7592143B2, “Methods of treating diseases responsive to induction of apoptosis and screening assays” (Cytovia, Inc., priority 2003, dated 2009)

Assays:
Transferrin Receptors = Transferrin Receptors (Homo sapiens, UniProt P02786); assay: Transferrin receptor binding assay of small molecules: inhibition of biotin-GA binding; details: 0.75 h; Compounds tested at 20 μM; biotin-GA kept at 1 μM
Procedure: The assay was run similar as described in Example 38. Wells of a 96-well assay plate were coated with 500 ng of HTR in 100 μl of PBS per well overnight at 4° C. These were washed twice with 200 μl of PBS and incubated with 200 μl of 1% BSA solution in PBS and washed twice with 200 μl of PBS. 100 μl of 1 μM biotin-GA solution in binding buffer (PBS/0.1% BSA/0.1% Tween-20) was added per well and incubated for 45 minutes at room temperature. For competition of binding assays biotin-GA was pre-mixed with indicated compounds at various concentrations. Final concentration of DMSO in binding mixtures was adjusted to 1% v/v. Wells were washed 4 times with 200 μl of binding buffer. 100 μl of 100 ng/ml Eu-labeled streptavidin solution in binding buffer were added per well and incubated for 45 minutes at room temperature. Wells were washed twice with 200 μl of binding buffer and twice with 200 μl of PBS. 100 μl of DELFIA Enhancement Solution were added per well and incubated for 10 minutes at room temperature. Plates were read on a Wallac Victor plate reader (Wallac-PerkinElmer Life Sciences) using delayed fluorescence Eu protocol at default manufacturer's settings.
Coated wells with no competing agent added were used to determine total binding (T). Non-coated wells were used to determine background binding (B). Background binding was consistently lower than 20%. Inhibition of binding was calculated as I=(T−BC)/(T−B)*100%, where BC was a reading corresponding to a well with a competing compound C added.
Other controls included assays of Biotin-GA binding to the wells coated with 500 μg/well of BSA or mouse Immunoglobulin G, the secondary reagent (Eu-labeled streptavidin) alone binding to the wells coated with […].

T-47D = assay: Caspase cascade activation and induction of apoptosis in solid tumor cells; type: cell-based, Human; details: 48 h incubation; for Caspase activity (Ratio): ratio of net RFU of test compound to control; for EC50: Homo sapiens, T47D, read-out: Caspase potency EC50; for EC50 / Caspase potency EC50 (nM): 0.016 to 10 μM
Procedure: Human breast cancer cell lines T-47D and DLD-1 were grown according to media component mixtures designated by American Type Culture Collection +10% FCS (Invitrogen Corporation), in a 5% CO2-95% humidity incubator at 37° C. T-47D and DLD-1 cells were maintained at a cell density between 50 and 80% confluency at a cell density of 0.1 to 0.6×10^6 cells/mL. Cells were harvested at 600×g and resuspended at 0.65×10^6 cells/mL into appropriate media +10% FCS. An aliquot of 22.5 μL of cells was added to a well of a 384-well microtiter plate containing 2.5 μL of a 10% DMSO in RPMI-1640 media solution containing 0.16 to 100 μM of test compound (0.016 to 10 μM final). An aliquot of 22.5 μL of cells was added to a well of a 384-well microtiter plate containing 2.5 μL of a 10% DMSO in RPMI-1640 media solution without test compound as the control sample. The samples were mixed by agitation and then incubated at 37° C. for 48 h in a 5% CO2-95% humidity incubator. After incubation, the samples were removed from the incubator and 25 μL of a solution containing 14 μM of N-(Ac-DEVD)-N′-ethoxycarbonyl-R110 (SEQ ID NO.: 41) fluorogenic substrate (Cytovia, Inc.; WO99/18856), 20% sucrose (Sigma), 20 mM DTT (Sigma), 200 mM NaCl (Sigma), 40 mM Na PIPES buffer pH 7.2 (Sigma), and 500 μg/mL lysolecithin (Calbiochem) was added. The samples were mixed by agitation and incubated at room temperature. Using a fluorescent plate reader (Model SPECTRAfluor Plus, Tecan), an initial reading (T=0) was made approximately 1-2 min after addition of the substrate solution, employing excitation at 485 nm and emission at 530 nm, to determine the background fluorescence of the control sample. After the 3 h incubation, the samples were read for fluorescence as above (T=3 h).
The Relative Fluorescence Unit values (RFU) were used to calculate the sample readings as follows: RFU(T=3h)−Control RFU(T=0)=Net RFU(T=3h)
The activity of caspase cascade activation was determined by the ratio of the net RFU value for test compound to that of control samples. The EC50 (nM) was determined by a sigmoidal dose-response calculation (Prism 3.0, GraphPad Software Inc.).

[1] = molecular target: T1, soluble human transferrin receptor (shTR) (Homo sapiens, UniProt P02786); assay: Biotin-GA binding to plates coated with soluble human transferrin receptor, Eu-streptavidin detection
T1 construct: soluble human transferrin receptor (shTR); purchased Merck Biosciences, Schwalbach, Germany
Procedure: FIG. 1A. […] 96-well plates were coated with soluble human transferrin receptor (shTR) (SEQ ID NO. 1) at 375 ng/well and blocked with Bovine Serum Albumin (BSA). Wells were incubated with increasing concentrations of biotin-GA in binding/washing buffer for 20 min at 30° C. Eu-streptavidin was used for the detection. Amounts of bound Eu-Streptavidin were quantified by measuring time-delayed fluorescence. Confirmed in three independent experiments.
FIG. 1C. […] Separate control wells were probed with biotinylated holo-transferrin (bio-Trn) to control for TR retention and possible denaturation over long incubation times. Independently confirmed in three experiments.
FIG. 1D. […] Binding of Biotin-GA and tritium-GA to Jurkat cells (hatched) or in-vitro TfR-binding (solid) in the presence of 1 μM GA, 50 μg/ml of apo-transferrin or 50 μg/ml of holo-transferrin is shown in this graph. […]
96-well plates were coated with soluble human transferrin receptor (shTR) (Merck Biosciences, Schwalbach, Germany) at 375 ng/well and blocked with Bovine Serum Albumin (BSA). […] Amounts of bound Eu-Streptavidin were quantified after incubation with Enhancement Solution (Perkin-Elmer, Wellesey, Mass.) by measuring time-delayed fluorescence on a Wallac Victor plate reader (Perkin-Elmer, Wellesey, Mass.) according to manufacturer's protocol. […] Kd and competition EC50 values were calculated using PRIZM software. […]

T47D cells = assay: Transferrin receptor internalization, FITC anti-transferrin receptor immunofluorescence; type: cell-based, human; details: 2 μM GA for 10 or 30 min
Procedure: FIG. 2A. […] T47D cells were treated with DMSO or 2 μM GA for 10 min (panels A and C respectively) and DMSO or 2 μM GA for 30 min (panels B and D, respectively) and further treated with FITC conjugated anti-transferrin receptor for 30 mins at 37° C. The cells were then fixed with methanol at −20° C. for 5 min, washed with PBS and mounted with Vectashield mounting medium. Representative of three independently confirmed experiments.
For detecting internalization of fluorescent transferrin receptor, T47D cells were plated on glass cover slips in a 6-well plate at a density of 3×10^5 cells per well on the day before the experiment. Cells were pretreated with 2 μM GA for 10 min at 37° C. washed with PBS, and then labeled for 30 min with 1 μg/ml FITC-labeled mouse anti-human transferrin receptor (RDI, Flanders, N.J.) at 37° C. The cells were then fixed with methanol at −20° C. for 5 min, washed with PBS and mounted with Vectashield mounting medium (Hard set with DAPI, Vector Laboratories, Inc., Burlingame, Calif.).

Jurkat cells = assay: Cell surface transferrin receptor expression by FACS; type: cell-based; details: 5 μM GA for 5 min
Procedure: FIG. 2B. […] Jurkat cells were treated with holo-transferrin (50 μg/ml) or GA (5 μM) alone for 5 min or pretreat for 5 min with holo-transferrin followed by 5 min GA (5 μM) treatment. Cells were then stained with FITC-conjugated anti-transferrin receptor antibody for 30 minutes at 4° C. After washing, cells were analyzed on a Becton Dickinson FACS Calibur. Data is shown as mean flourescence units (mfu). Confirmed in three independent experiments.
FACS Analysis: For cell surface staining of transferrin receptor, cells were washed with PBS+1% BSA and stained with FITC-conjugated anti-transferrin receptor antibody (RDI, Flanders, N.J.) for 30 minutes at 4° C. After washing, cells were analyzed on a FACS Calibur (BD Biosciences, San Jose, Calif.) using Cellquest software.

Sequence of Transferrin Receptors (P02786 whole entry): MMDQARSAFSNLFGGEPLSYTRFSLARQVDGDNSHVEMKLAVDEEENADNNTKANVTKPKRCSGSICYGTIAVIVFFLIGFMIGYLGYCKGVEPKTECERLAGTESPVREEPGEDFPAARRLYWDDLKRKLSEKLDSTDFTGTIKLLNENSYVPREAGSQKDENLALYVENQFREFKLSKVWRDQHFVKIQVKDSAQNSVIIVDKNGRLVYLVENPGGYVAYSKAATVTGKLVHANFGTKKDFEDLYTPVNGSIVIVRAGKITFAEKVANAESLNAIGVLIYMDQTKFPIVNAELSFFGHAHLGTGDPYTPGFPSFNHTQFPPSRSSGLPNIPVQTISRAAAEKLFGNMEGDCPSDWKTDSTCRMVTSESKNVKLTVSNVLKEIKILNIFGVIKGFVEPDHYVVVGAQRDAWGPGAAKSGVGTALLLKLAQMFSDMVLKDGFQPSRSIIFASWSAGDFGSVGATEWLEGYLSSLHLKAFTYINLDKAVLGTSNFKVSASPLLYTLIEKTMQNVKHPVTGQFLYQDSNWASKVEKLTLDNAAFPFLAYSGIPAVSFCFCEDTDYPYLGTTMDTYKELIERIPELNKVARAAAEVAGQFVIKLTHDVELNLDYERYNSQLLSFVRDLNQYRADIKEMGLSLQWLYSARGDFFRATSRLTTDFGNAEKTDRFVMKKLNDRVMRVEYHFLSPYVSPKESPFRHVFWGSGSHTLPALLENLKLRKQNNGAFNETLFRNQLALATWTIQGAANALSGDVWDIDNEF
T1 sequence (P02786 101-760 limits assumed): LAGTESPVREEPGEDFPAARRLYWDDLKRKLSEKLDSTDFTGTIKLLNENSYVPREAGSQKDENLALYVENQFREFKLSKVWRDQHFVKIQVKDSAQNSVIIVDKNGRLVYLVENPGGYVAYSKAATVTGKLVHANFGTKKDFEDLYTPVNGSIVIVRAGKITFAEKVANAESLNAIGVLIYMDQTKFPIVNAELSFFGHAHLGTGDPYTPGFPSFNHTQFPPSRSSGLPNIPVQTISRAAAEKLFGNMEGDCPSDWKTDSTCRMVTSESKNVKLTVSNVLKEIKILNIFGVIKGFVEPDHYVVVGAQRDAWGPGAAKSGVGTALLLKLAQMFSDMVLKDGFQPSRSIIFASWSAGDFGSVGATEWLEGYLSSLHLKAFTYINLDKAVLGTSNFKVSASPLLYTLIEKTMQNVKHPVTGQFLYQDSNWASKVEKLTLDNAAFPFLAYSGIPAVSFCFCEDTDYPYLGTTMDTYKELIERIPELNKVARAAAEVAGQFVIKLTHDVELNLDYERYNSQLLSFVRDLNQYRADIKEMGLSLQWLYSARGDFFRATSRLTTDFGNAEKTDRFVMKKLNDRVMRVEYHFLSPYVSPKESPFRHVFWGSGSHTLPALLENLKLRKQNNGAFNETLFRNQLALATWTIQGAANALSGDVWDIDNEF

Row | Structure (SMILES) | inhibition at 20 µM (Transferrin Receptors) | Caspase activity (Ratio) (T-47D) | EC50 (T-47D) | Caspase potency EC50 (nM) (T-47D) | Binding to transferrin receptor in vitro (in words) ([1]; shTR 375 ng/well, increasing concentrations of biotin-GA) | Displacement of receptor-bound GA (in words) ([1]; shTR-coated wells incubated with biotin-GA, washed, then incubated with GA) | Transferrin receptor internalization (in words) (T47D cells) | Transferrin receptor internalization by cell surface receptor expression (in words) (Jurkat cells)
1 | C=CCC12OCC3CC(C=C4C(=O)c5ccccc5OC431)C2=O (stereo not shown) [Example 17, 1-Allyl-1,3,3a,4,5,12a-hexahydro-7,13-dioxo-1,5-methano-furo[3,4-d]xanthene] | 52% | 9.8 | 8.38 µM |  |  |  |  | 
2 | C=CCC12OCC3CC4(Oc5ccccc5C(=O)C4=CC31)C2=O (stereo not shown) [Example 18, 1-Allyl-1,3,3a,4,4a,11a-hexahydro-10,12-dioxo-1,4a-methano-furo[3,4-b]xanthene] | 42% | 2.9 | 6.6 µM |  |  |  |  | 
3 | C=CCC12OCC3CC(CC4C(=O)c5ccccc5OC341)C2=O (stereo not shown) [Example 19, 1-allyl-1,3,3a,4,5,6,6a,12a-octahydro-7,13-dioxo-1,5-methano-furo[3,4-d]xanthene] | 0% | 1.0 |  | Inactive |  |  |  | 
4 | CC(C)=CCC12OC(C)(C)C3CC(C=C4C(=O)c5ccccc5OC431)C2=O (stereo not shown) [Example 22, 1-(3-Methyl-2-butenyl)-3,3-dimethyl-1,3,3a,4,5,12a-hexahydro-7,13-dioxo-1,5-methano-furo[3,4-d]xanthene] | 51% | 9.9 | 4.02 µM |  |  |  |  | 
5 | CC(C)=CCC12OC(C)(C)C3CC4(Oc5ccccc5C(=O)C4=CC31)C2=O (stereo not shown) [Example 23, 1-(3-Methyl-2-butenyl)-3,3-dimethyl-1,3,3a,4,4a,11a-hexahydro-10,12-dioxo-1,4a-methano-furo[3,4-b]xanthene] | 59% | 14.1 | 3.73 µM |  |  |  |  | 
6 | C=CCC12C=C(C(=O)c3ccccc3)C3(CC=C)C(COC3(CC=C)C1=O)C2 (stereo not shown) [Example 27, 1,3,7-Triallyl-8-benzoyl-4-oxa-tricyclo[4.3.1.0^3,7]dec-8-en-2-one] | 11% | 1.5 |  | Inactive |  |  |  | 
7 | C=CCC12CC3COC(CC=C)(C1=O)C3(CC=C)C=C2C(=O)c1ccccc1 (stereo not shown) [Example 28, 1,3,7-Triallyl-9-benzoyl-4-oxa-tricyclo[4.3.1.0^3,7]dec-8-en-2-one] | 8% | 1.3 |  | Inactive |  |  |  | 
8 | CC(C)=CCC12OC(C)(C)C3CC(C=C4C(=O)C=C(c5ccccc5)OC431)C2=O (stereo not shown) [Example 31, 1-(3-Methyl-2-butenyl)-3,3-dimethyl-1,3,3a,4,5,10a-hexahydro-7,11-dioxo-9-phenyl-1,5-methano-furo[3,4-i]chromene] | 47% | 11.4 | 3.85 µM |  |  |  |  | 
9 | CC(C)=CCC12OC(C)(C)C3CC4(OC(c5ccccc5)=CC(=O)C4=CC31)C2=O (stereo not shown) [Example 32, 1-(3-Methyl-2-butenyl)-3,3-dimethyl-1,3,3 a,4,4a,9a-hexahydro-8,10-dioxo-6-phenyl-1,4a-methano-furo[3,4-g]chromene] | 61% | 10.6 | 3.09 µM |  |  |  |  | 
10 | CC(C)=CCC[C@]1(C)C=Cc2c(O)c3c(c(CC=C(C)C)c2O1)O[C@]12C(=C[C@@H]4C[C@H]1C(C)(C)O[C@@]2(C/C=C(/C)C(=O)O)C4=O)C3=O [GA, Gambogic acid] |  |  |  |  | binds transferrin receptor in vitro | can be displaced by active GA derivatives | interferes with receptor internalization | interferes with transferrin receptor (SEQ ID NO. 1) internalization
